Assay results from patent EP1790345A1, “Triazin beta-secretase inhibitors” (Esbatech AG, priority 2005, dated 2007).

Legend:
[1] = tested on: Swedish APP695 transgenic HEK293 cells; assay: Aβ1-40 (Sw) bioassay (ELISA of Aβ1-40 in cell supernatant); assay type: cell-based; conditions: for % reduction of Aβ1-40 secretion: Swedish APP695 transgenic HEK293 cells, ELISA; for IC50: Homo sapiens, HEK293, concentration that reduces Aβ1-40 secretion to 50 %, read-out: IC50 Aβ1-40(sw) bioassay (cell-based)
Source text: (§1) The tests performed were • a) Aβ1-40 (Sw) bioassay, which measures the amount of the amyoid peptide Aβ1-40 in the supernatant of Swedish APP695 transgenic HEK293 cells in the presence of the various BACE inhibitors via ELISA (enzyme-linked immunosorbent assay). In the table, the inhibitory concentration that reduces Aβ1-40 secretion to 50 % is indicated (IC50), or the % reduction of Aβ1-40 secretion at the indicated concentration. • b) FRET assay, which measures the activity of recombinant BACE enzyme in the presence of the various BACE inhibitors via a FRET (fluorescence resonance energy transfer)-based readout. In the table, the inhibitory concentration that reduces the activity of BACE to 50 % is indicated (IC50), or the % reduction of the activity of BACE at the indicated concentration. • c) An additional in silico test was performed for the compounds listed in Tables 1 to 3. The compounds were docked with the FFLD approach (Budin et al., Biol. Chem. 382, 1365-1372, 2001) and their binding energy was evaluated with the LIECE method (Huang and Caflisch, J. Med. Chem. 47, 5791-5797, 2004). The affinity evaluated with LIECE is in the low micromolar range for most of these compounds.

recombinant BACE enzyme = recombinant BACE enzyme (Homo sapiens, UniProt P56817); assay: BACE FRET assay (in vitro); assay type: biochemical; conditions: concentration that reduces the activity of BACE to 50 %
Sequence of recombinant BACE enzyme (P56817 46-501, species assumed): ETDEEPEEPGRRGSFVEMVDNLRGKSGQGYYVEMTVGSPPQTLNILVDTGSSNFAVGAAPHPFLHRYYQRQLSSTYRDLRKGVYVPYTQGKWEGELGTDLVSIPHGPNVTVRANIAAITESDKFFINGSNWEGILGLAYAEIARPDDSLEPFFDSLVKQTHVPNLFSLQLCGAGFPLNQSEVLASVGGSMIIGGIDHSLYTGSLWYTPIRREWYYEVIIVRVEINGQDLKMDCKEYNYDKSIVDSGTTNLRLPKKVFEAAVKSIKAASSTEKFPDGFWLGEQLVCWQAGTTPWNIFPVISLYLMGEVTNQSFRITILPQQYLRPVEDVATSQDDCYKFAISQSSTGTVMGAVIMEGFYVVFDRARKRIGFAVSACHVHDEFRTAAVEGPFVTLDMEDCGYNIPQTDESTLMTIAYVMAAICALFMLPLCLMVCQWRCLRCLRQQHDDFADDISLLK
Source text: as §1

| Compound | IC50 (recombinant BACE enzyme) | other results |
| --- | --- | --- |
| Cc1ccc(Nc2nc(N/N=C/c3cc(Br)cc(Br)c3O)nc(N3CCOCC3)n2)cc1 [Compound 205C07] | 48.1 µM | % reduction of Aβ1-40 secretion ([1]; at 50 µM): No (50 µM) |
| Cc1ccc(Nc2nc(N/N=C/c3cc(Br)cc(Br)c3O)nc(N3CCOCC3)n2)cc1Cl [Compound 206E02] | 20.6 µM | % reduction of Aβ1-40 secretion ([1]; at 50 µM): 27% (50 µM) |
| COc1ccc(Nc2nc(NN=Cc3ccc(-c4cccc(C(=O)O)c4)o3)nc(Nc3ccccc3)n2)cc1 [Compound 250B04] | 66.6 µM | IC50 [1]: 10 to 20 µM |
| O=C(O)c1cc(-c2ccc(C=NNc3nc(Nc4ccc(F)cc4)nc(N4CCOCC4)n3)o2)ccc1Cl [Compound 250C04] | 7.1 µM | % reduction of Aβ1-40 secretion ([1]; at 25 µM): 0 (25 µM) |
| COc1ccc(Nc2nc(N/N=C/c3cc(Br)cc(Br)c3O)nc(N3CCOCC3)n2)cc1 [Compound 251A09] | 34.4 µM |  |
| O=C(O)c1cc(-c2ccc(/C=N/Nc3nc(Nc4ccccc4)nc(N4CCCCC4)n3)o2)ccc1Cl [Compound 250A05] | 142 µM | IC50 [1]: 10 to 20 µM |
| Oc1c(I)cc(I)cc1/C=N/Nc1nc(Nc2ccccc2)nc(Nc2ccccc2)n1 [Compound 201G06] | 25.5 µM | % reduction of Aβ1-40 secretion ([1]; at 5 µM): No (5 µM) |
| O=C(O)c1cc(-c2ccc(C=NNc3nc(Nc4ccc(F)cc4)nc(N4CCCCC4)n3)o2)ccc1O [Compound 250B05] | 30.9 µM | IC50 [1]: 10 to 20 µM |
| Oc1c(Cl)cc(Cl)cc1/C=N/Nc1nc(Nc2ccccc2)nc(Nc2ccccc2)n1 [Compound 201C08] | 11.2 µM | % reduction of Aβ1-40 secretion ([1]; at 5 µM): 25% (5 µM) |
| O=[N+]([O-])c1cc(-c2ccc(/C=N/Nc3nc(N4CCOCC4)nc(N4CCOCC4)n3)o2)ccc1Cl [Compound 251A10] | 124 µM |  |
| Oc1c(Br)cc(/C=N/Nc2nc(N3CCCCC3)nc(N3CCCCC3)n2)c(O)c1Br [Compound 251G09] | 170 µM |  |
| Clc1ccccc1-c1ccc(/C=N/Nc2nc(Nc3ccccc3)nc(Nc3ccccc3)n2)o1 [Compound 251F09] | 188 µM |  |
| Oc1c(Br)cc(/C=N/Nc2nc(Nc3ccccc3)nc(Nc3ccccc3)n2)cc1Br [Compound 202E09] | 53.9 µM | % reduction of Aβ1-40 secretion ([1]; at 5 µM): 25% (5 µM) |
| CNc1nc(N/N=C/c2ccc(-c3ccc([N+](=O)[O-])cc3)o2)nc(Nc2ccccc2)n1 [Compound 251C08] | 24.4 µM |  |
| Oc1c(Br)cc(Br)cc1/C=N/Nc1nc(Nc2ccccc2)nc(N2CCCC2)n1 [Compound 251B07] | 45.4 µM |  |
| Cc1ccc(Cl)cc1-c1ccc(/C=N/Nc2nc(N3CCOCC3)nc(N3CCOCC3)n2)o1 [Compound 251C10] | > 100 µM |  |
| Oc1c(Br)cc(Br)cc1/C=N/Nc1nc(Nc2ccccc2)nc(Nc2ccccc2)n1 [Compound 251A07] | 10.6 µM |  |
| Cc1ccc(C)c(Nc2nc(N/N=C/c3cc(Br)c(O)c(Br)c3O)nc(N3CCOCC3)n2)c1 [Compound 205A04] | 81.8 µM | % reduction of Aβ1-40 secretion ([1]; at 5 µM): No (5 µM) |
| Oc1c(Cl)cc(Br)cc1/C=N/Nc1nc(Nc2ccccc2)nc(Nc2ccccc2)n1 [Compound 201G11] | 11.9 µM | % reduction of Aβ1-40 secretion ([1]; at 5 µM): 26% (5 µM) |
